Measurements as given in the NIST ThermoML archive (doi:10.1021/je4000372).

Test: xn = mol fraction of the nth substance listed
Settings: 101 kPa, Liquid; for viscosity: Capillary tube (Ostwald / Ubbelohde) method; for mass density: Pycnometric method

CCCCOCCOCCO [3,6-dioxa-1-decanol] + OCCNCCO
Settings | mass density, 293.15 K [kg/m3] | mass density, 303.15 K [kg/m3] | mass density, 313.15 K [kg/m3] | mass density, 323.15 K [kg/m3] | mass density, 333.15 K [kg/m3] | viscosity, 293.15 K [mPa·s] | viscosity, 303.15 K [mPa·s] | viscosity, 313.15 K [mPa·s] | viscosity, 323.15 K [mPa·s] | viscosity, 333.15 K [mPa·s]
x1 = 0.03299 | 1088.3 | 1081.8 | 1075.8 | 1069.4 | 1062.8 | 681.3 | 290.7 | 156.2 | 80.04 | 46.73
x1 = 0.06718 | 1080.7 | 1074.2 | 1068 | 1061.5 | 1054.9 | 550.2 | 231.6 | 122.5 | 66.29 | 38.49
x1 = 0.1026 | 1073.2 | 1066.5 | 1060.3 | 1053.6 | 1046.9 | 425.1 | 189.9 | 98.2 | 53.87 | 31.99
x1 = 0.1394 | 1065.8 | 1058.9 | 1052.5 | 1045.7 | 1038.8 | 321.3 | 150.1 | 81.15 | 43.18 | 26.71
x1 = 0.2174 | 1050.9 | 1043.7 | 1037.1 | 1029.9 | 1022.8 | 191.6 | 96.21 | 53.26 | 30.37 | 19.13
x1 = 0.3018 | 1036.3 | 1028.7 | 1021.9 | 1014.5 | 1007.3 | 114.4 | 59.95 | 34.51 | 20.74 | 13.22
x1 = 0.3933 | 1021.9 | 1014 | 1007 | 999.2 | 991.8 | 65.16 | 37.05 | 22.29 | 14.26 | 9.429
x1 = 0.4929 | 1007.7 | 999.5 | 992.3 | 984.2 | 976.7 | 38.57 | 22.76 | 14.83 | 9.416 | 6.995
x1 = 0.6019 | 993.8 | 985.2 | 977.9 | 969.6 | 961.9 | 23.75 | 14.92 | 10.02 | 7.041 | 5.178
x1 = 0.7008 | 982.3 | 973.5 | 966.1 | 957.6 | 949.8 | 15.75 | 10.43 | 7.262 | 5.199 | 3.927
x1 = 0.7558 | 976.4 | 967.5 | 960 | 951.4 | 943.5 | 12.19 | 8.762 | 6.011 | 4.251 | 3.358
x1 = 0.8059 | 971.2 | 962.2 | 954.7 | 946 | 938.1 | 10.43 | 7.305 | 5.293 | 3.759 | 3.035
x1 = 0.8537 | 966.4 | 957.3 | 949.7 | 940.9 | 933 | 8.982 | 6.312 | 4.629 | 3.407 | 2.756
x1 = 0.9031 | 961.6 | 952.4 | 944.8 | 935.9 | 927.9 | 7.858 | 5.501 | 4.032 | 3.028 | 2.463
x1 = 1 | 952.9 | 943.5 | 935.7 | 926.6 | 918.5 | 5.84 | 4.23 | 3.22 | 2.51 | 2

OCCN(CCO)CCO [triethanolamine] + CCCCOCCOCCO
Settings | mass density, 293.15 K [kg/m3] | mass density, 303.15 K [kg/m3] | mass density, 313.15 K [kg/m3] | mass density, 323.15 K [kg/m3] | mass density, 333.15 K [kg/m3] | viscosity, 293.15 K [mPa·s] | viscosity, 303.15 K [mPa·s] | viscosity, 313.15 K [mPa·s] | viscosity, 323.15 K [mPa·s] | viscosity, 333.15 K [mPa·s]
x2 = 0 | 1124.3 | 1118.5 | 1112.8 | 1107.1 | 1101.5 | 917.6 | 404.7 | 203.9 | 108.3 | 64.2
x2 = 0.09279 | 1105.1 | 1098.9 | 1093.1 | 1087.2 | 1081.4 | 491.9 | 228.3 | 112.58 | 69.65 | 43.5
x2 = 0.1871 | 1086.3 | 1079.9 | 1073.9 | 1067.5 | 1061.6 | 269.8 | 126.6 | 67.74 | 44.43 | 28.3
x2 = 0.2841 | 1067.9 | 1061 | 1054.8 | 1048.1 | 1041.8 | 153.2 | 69.69 | 40.77 | 28.48 | 18.4
x2 = 0.3804 | 1050.4 | 1043.1 | 1036.7 | 1029.5 | 1022.9 | 85.31 | 41.88 | 25.92 | 17.59 | 12.6
x2 = 0.4787 | 1033.3 | 1025.6 | 1018.9 | 1011.4 | 1004.5 | 50.08 | 26.39 | 16.38 | – | 8.97
x2 = 0.5789 | 1016.5 | 1008.5 | 1001.6 | 993.7 | 986.6 | 30.52 | 17.51 | 10.81 | 8.79 | 6.52
x2 = 0.6816 | 999.9 | 991.7 | 984.6 | 976.4 | 969 | 18.81 | 10.74 | 7.41 | 5.83 | 4.71
x2 = 0.7855 | 983.9 | 975.2 | 967.9 | 959.5 | 951.9 | 12.36 | 8.16 | – | 4.35 | 3.54
x2 = 0.8923 | 968.1 | 959.1 | 951.5 | 942.7 | 934.9 | 8.49 | 6.01 | – | 3.39 | 2.67
